Data from ChEMBL document CHEMBL3045875, “Design, synthesis, and biological evaluation studies of novel quinazolinone derivatives as anticonvulsant agents” (Med Chem Res, 2013).

Assays:
Mus musculus [1] = assay: Anticonvulsant activity in Swiss albino Mus musculus (mouse) assessed as protection against Maximal electric shock-induced seizures at 0.5 mmol/kg, ip administered 30 min prior to electric shock-challenge relative to control; type: functional
Mus musculus [2] = assay: Anticonvulsant activity in Swiss albino Mus musculus (mouse) assessed as protection against PTZ-induced seizures at 0.5 mmol/kg, i.p. administered 30 min prior to PTZ-challenge relative to control; type: functional
Mus musculus [3] = assay: Anticonvulsant activity in ip dosed Swiss albino Mus musculus (mouse) assessed as protection against PTZ-induced seizures administered 30 min prior to PTZ-challenge; type: functional
Mus musculus [4] = assay: Anticonvulsant activity in Swiss albino Mus musculus (mouse) assessed as protection against Maximal electric shock-induced seizures at 1.8 mmol/kg, ip administered 30 min prior to electric shock-challenge relative to control; type: functional
Mus musculus [5] = assay: Anticonvulsant activity in Swiss albino Mus musculus (mouse) assessed as protection against PTZ-induced seizures at 1.8 mmol/kg, i.p. administered 30 min prior to PTZ-challenge relative to control; type: functional
[6] = Neurotoxicity in ip dosed Swiss albino Mus musculus (mouse) after 4 hr by rotarod test; type: toxicity, organism-based; conditions: in vivo
Mus musculus [7] = organism: Mus musculus; assay: Protective index, ratio of TD50 to ED50 in Swiss albino Mus musculus (mouse)
[8] = Therapeutic index, ratio of LD50 to ED50 in Swiss albino Mus musculus (mouse); type: organism-based; conditions: in vivo, read-out: Ratio LD50/ED50
[9] = Toxicity in ip dosed Swiss albino Mus musculus (mouse) assessed as mortality; type: organism-based; conditions: in vivo
Mus musculus [10] = assay: Anticonvulsant activity in Swiss albino Mus musculus (mouse) assessed as protection against Maximal electric shock-induced seizures at 0.8 mmol/kg, ip administered 30 min prior to electric shock-challenge relative to control; type: functional
Mus musculus [11] = assay: Anticonvulsant activity in Swiss albino Mus musculus (mouse) assessed as protection against PTZ-induced seizures at 0.8 mmol/kg, i.p. administered 30 min prior to PTZ-challenge relative to control; type: functional

Cc1nc2c(I)cc(I)cc2c(=O)n1Cc1ccc(I)cc1
Activity (Mus musculus [1]): 66% | Activity (Mus musculus [2]): 66%

Cc1nc2c(I)cc(I)cc2c(=O)n1Cc1cccc(C(F)(F)F)c1
Activity (Mus musculus [1]): 33% | Activity (Mus musculus [2]): 50%

Cc1nc2c(I)cc(I)cc2c(=O)n1Cc1cccc(Cl)c1
Activity (Mus musculus [1]): 66% | Activity (Mus musculus [2]): 100%

CCCC(CCC)C(=O)[O-].[Na+] [VALPROATE SODIUM]
ED50 (Mus musculus [3]): 300 mg/kg | Activity (Mus musculus [4]): 100% | Activity (Mus musculus [5]): 100% | TD50 at 4 h [6]: 450 mg/kg

Cc1nc2c(I)cc(I)cc2c(=O)n1-c1ccc(Br)cc1
Activity (Mus musculus [1]): 66% | Activity (Mus musculus [2]): 100%

Cc1nc2c(I)cc(I)cc2c(=O)n1Cc1cccc([N+](=O)[O-])c1
Activity (Mus musculus [1]): 66% | Activity (Mus musculus [2]): 100%

Cc1nc2c(I)cc(I)cc2c(=O)n1Cc1ccccc1
Activity (Mus musculus [1]): 50% | Activity (Mus musculus [2]): 66%

Cc1nc2ccccc2c(=O)n1Cc1ccc(Br)cc1
Activity (Mus musculus [1]): 66% | Activity (Mus musculus [2]): 66%

Cc1nc2c(I)cc(I)cc2c(=O)n1Cc1ccc(Br)cc1
ED50 (Mus musculus [3]): 138 mg/kg | Activity (Mus musculus [1]): 100% | Activity (Mus musculus [2]): 100% | Ratio TD50/ED50 (Mus musculus [7]): 2.39 | selectivity ratio [8]: 4.09 | LD50 [9]: 565 mg/kg | TD50 at 4 h [6]: 330 mg/kg

Cc1nc2ccc(I)cc2c(=O)n1Cc1ccc(Br)cc1
Activity (Mus musculus [1]): 66% | Activity (Mus musculus [2]): 66%

Cc1nc2c(I)cc(I)cc2c(=O)n1Cc1ccc(F)cc1
ED50 (Mus musculus [3]): 160 mg/kg | Activity (Mus musculus [1]): 100% | Activity (Mus musculus [2]): 100% | Ratio TD50/ED50 (Mus musculus [7]): 2.25 | selectivity ratio [8]: 2.62 | LD50 [9]: 420 mg/kg | TD50 at 4 h [6]: 360 mg/kg

Cc1nc2c(I)cc(I)cc2c(=O)n1Cc1ccc(Cl)c(Cl)c1
Activity (Mus musculus [1]): 66% | Activity (Mus musculus [2]): 66%

Cc1ccc(Cn2c(C)nc3c(I)cc(I)cc3c2=O)cc1
Activity (Mus musculus [1]): 33% | Activity (Mus musculus [2]): 50%

Cc1nc2c(I)cc(I)cc2c(=O)n1Cc1ccc(Cl)cc1
ED50 (Mus musculus [3]): 150 mg/kg | Activity (Mus musculus [1]): 100% | Activity (Mus musculus [2]): 100% | Ratio TD50/ED50 (Mus musculus [7]): 1.87 | selectivity ratio [8]: 4 | LD50 [9]: 600 mg/kg | TD50 at 4 h [6]: 280 mg/kg

COc1ccc(Cn2c(C)nc3c(I)cc(I)cc3c2=O)cc1
Activity (Mus musculus [1]): 33% | Activity (Mus musculus [2]): 66%

Cc1ccccc1-n1c(C)nc2ccccc2c1=O [METHAQUALONE]
ED50 (Mus musculus [3]): 200 mg/kg | Activity (Mus musculus [10]): 100% | Activity (Mus musculus [11]): 100% | Ratio TD50/ED50 (Mus musculus [7]): 2 | TD50 at 4 h [6]: 400 mg/kg
